Consider 8 molecules from PMC9382192, “Combined treatment with epigenetic agents enhances anti-tumor activity of MAGE-D4 peptide-specific T cells by upregulating the MAGE-D4 expression in glioma” (Frontiers in Oncology, 2022).

Data set [1] concerns MAGE-D4 promoter. Put plainly: Pyrosequencing of MAGE-D4 promoter in U87. Type of data set: cell-based, human. To be noted: U87, compared with control group. As to the method:
The human glioma cell lines (U87-MG and U251) were obtained from the Cell Bank of Type Culture Collection of the Chinese Academy of Science (Shanghai, China). […] A3656), valproic acid (VPA, CAS No. 99-66-1), and trichostatin A (TSA, CAS No. 58880-19-6) were purchased from Sigma-Aldrich Corporation (St. Louis, MO, USA). DAC and TSA were dissolved in DMSO to a concentration of 10 mM. Aliquots were stored at -80°C and diluted with media before being used. […] The methylation status of the MAGE-D4 promoter in cells was quantified by the PyroMark Q96 ID pyrosequencing platform (Qiagen), which was performed by Shanghai […] Biotech Co., Ltd. The methylation status of each site was analyzed automatically by the accompanying software Pyro Q-CpG (Qiagen). Two regions in the core promoter were detected, which contained 18 CpG sites. […]

Data set [2] deals with MAGE-D4 promoter. Put plainly: Pyrosequencing of MAGE-D4 promoter in U251. Type of data set: cell-based, human. To be noted: U251, compared with control group. As to the method:
The human glioma cell lines (U87-MG and U251) were obtained from the Cell Bank of Type Culture Collection of the Chinese Academy of Science (Shanghai, China). […] A3656), valproic acid (VPA, CAS No. 99-66-1), and trichostatin A (TSA, CAS No. 58880-19-6) were purchased from Sigma-Aldrich Corporation (St. Louis, MO, USA). DAC and TSA were dissolved in DMSO to a concentration of 10 mM. Aliquots were stored at -80°C and diluted with media before being used. Drug treatments were divided into seven groups: (1) DAC group: cells were cultured in medium on the presence of 1 μM DAC for 120 h; (2) VPA group: cells were grown in medium containing 1 mM VPA for 120 h; (3) TSA group: cells were cultured in medium supplemented with 1 μM TSA for 24 h; (4) D + V group: cells were cultured with 1 μM DAC and 1 mM VPA for 120 h; (5) D + T group: cells were cultured with 1 μM DAC for 120 h, followed by 1 μM TSA for 24 h; (6) Control group: cells were cultured with 0.09% DMSO, which is the highest concentration of DMSO used in this study in consideration of the potential toxicity of DMSO to living cells. Human recombinant interleukin (IL) IL-2, IL-4, and human recombinant granulocyte/macrophage colony-stimulating factor (GM-CSF) were purchased from R&D Systems. Genomic DNA was isolated from cells using a DNA Isolation Kit (Vazyme, China). The methylation status of the MAGE-D4 promoter in cells was quantified by the PyroMark Q96 ID pyrosequencing platform (Qiagen), which was performed by Shanghai […] Biotech Co., Ltd. The methylation status of each site was analyzed automatically by the accompanying software Pyro Q-CpG (Qiagen). Two regions in the core promoter were detected, which contained 18 CpG sites. Primers used in pyrosequencing were as follows: region 1: [NT] (forward) and [NT] (reverse); region 2: [NT] (forward) and [NT] (reverse). Sequences of the MAGE-D4 promoter and pyrosequencing regions containing CpG sites are listed in Supplemental Materials.

The test system of data set [3] is autologous T cells. To be noted: T cells with peptide-pulsed autologous DCs 10:1, 72 h; versus DCs without peptide. The protocol: PBMCs were isolated from the peripheral blood samples of 8 HLA-A2^+ healthy donors, with University Ethics Review Committee-approved, written consent. The effector T lymphocytes and DCs were prepared by our published method ([31]). CD8^+ T cells were isolated from PBMCs using CD8^+ negative selection MicroBeads EasySep™ Human CD8^+ T Cell Isolation Kit (17953, stemcell) according to the manufacturers.
For T-cell stimulation, T cells were cultured with RPMI1640 complete medium containing IL-2 (20 ng/ml) mixed with peptide-pulsed autologous DCs at a ratio of 10:1 and co-cultured for 72 h. The supernatant of DCs and T cells co-cultured for 72h was used to detect IL-2 and γ-IFN. The capacity of peptide-pulsed DCs to stimulate the proliferation of autologous T cells was evaluated using a Cell Counting Kit-8 (CCK-8, Beiltime Biotec, China), as described using our published method ([31]). CCK-8 solution (20 μl/well) was added in 2 h before the end of culture. Then, the optical density (OD) was measured by microplate tester. The stimulation index (SI) is calculated according to the following formula: SI = (experiment well OD value − background OD value)/(blank control well OD value − background OD value).

Data set [4] deals with U251. Put plainly: LDH cytotoxicity assay and HLA block, U251. Type of data set: cell-based, human. To be noted: DAC + TSA-treated U251, E:T 50:1, 4 h. As to the method:
(§1) The human glioma cell lines (U87-MG and U251) were obtained from the Cell Bank of Type Culture Collection of the Chinese Academy of Science (Shanghai, China). Decitabine (DAC, CAS No. A3656), valproic acid (VPA, CAS No. 99-66-1), and trichostatin A (TSA, CAS No. 58880-19-6) were purchased from Sigma-Aldrich Corporation (St. Louis, MO, USA). DAC and TSA were dissolved in DMSO to a concentration of 10 mM. Aliquots were stored at −80°C and diluted with media before being used. Drug treatments were divided into seven groups: (1) DAC group: cells were cultured in medium on the presence of 1 μM DAC for 120 h; (2) VPA group: cells were grown in medium containing 1 mM VPA for 120 h; (3) TSA group: cells were cultured in medium supplemented with 1 μM TSA for 24 h; (4) D + V group: cells were cultured with 1 μM DAC and 1 mM VPA for 120 h; (5) D + T group: cells were cultured with 1 μM DAC for 120 h, followed by 1 μM TSA for 24 h; (6) Control group: cells were cultured with 0.09% DMSO, which is the highest concentration of DMSO used in this study in consideration of the potential toxicity of DMSO to living cells. Human recombinant interleukin (IL) IL-2, IL-4, and human recombinant granulocyte/macrophage colony-stimulating factor (GM-CSF) were purchased from R&D Systems.
The cytotoxic activity of MAGE-D4 peptide-specific CTLs to glioma cells was determined according to the instructions of the manufacturers by our published method ([31]). […] Four hours later, suspended cells were collected for CD107a flow cytometry, meanwhile, the supernatant was collected and analyzed with granzyme A and perforin ELISA kit (Cloud-Clone Corporation, Wuhan, China) at 450 nm, and the LDH kit (Promega, USA) at 490 nm. The percentage of specific lysis was calculated using the following formula: [(experimental release − spontaneous release)/(maximum release − spontaneous release)] × 100. […] Then, the cytotoxicity assay was measured and calculated as mentioned above.

Data set [5] addresses peptide/HLA-A2 complex (Homo sapiens, UniProt P04439, D140Y/D185E/D98H/E176V/E277Q/G131W/G231S/I119V/I121R/I166T/I218V/L300P/L318F/N151K/N90K/P208A/P217A/Q86G/Q94H/R138H/R169H/T345S). Put plainly: Peptide/HLA-A2 complex stability assay on T2 cells. Type of data set: binding. To be noted: 50 μM peptide + β2 microglobulin 2.5 μg/ml, 18 h 37°C, brefeldin A 1 h, read at 0, 2, 4, 6 h, flow cytometry. As to the method:
T2 cells were collected and placed in 24-well plates (1 × 10^6/ml), 1 ml in each well. Predictive peptides (50 μM) and β2 microglobulin (2.5 μg/ml) were added, respectively. […] After the incubation, T2 cells were washed twice with cold PBS to clear the unbound peptide, then brefeldin A (10 μg/m) was added and incubated for 1 h. Then, cells were washed and incubated at 37°C for 0, 2, 4, and 6 h; FITC-labeled mouse anti-human HLA-A2 monoclonal antibody was added and incubated at 4°C for 30 min under dark conditions. The MFI of cells was detected by flow cytometry after washing twice. The results are expressed as dissociation complex 50 (DC50), meaning the time required for the loss of 50% of the stabilized peptide/complex.

Data set [6] relates to HLA-A2. Put plainly: Peptide binding assay on T2 cells. To be noted: 50 µg/ml peptide, 37°C 18 h, FITC anti-HLA-A2 (BB7.2), flow cytometry, FI = (MFI peptide − MFI background)/MFI background. Also noted: species or system human. As to the method: Peptide binding affinity to HLA-A2 was assessed using T2 cells, a cell line that expresses HLA-A2 molecules but is deficient in antigen presentation. […] After incubation, the cells were washed in Phosphate buffered saline (PBS) and further incubated with FITC-conjugated anti-HLA-A2 antibody (BB7.2; BD Biosciences) at 4°C for 45 min. The cells were then washed and re-suspended with 300 µl of PBS and subjected to flow cytometer analysis (FACS Calibur, BD Biosciences). The fluorescence index (FI) was calculated as follows: FI = mean fluorescence intensity (MFI) with the given peptide − MFI without peptide/MFI without peptide.

Data set [7] deals with HLA-A2. Put plainly: HLA-A2 expression in U251. To be noted: DAC 1 μM 120 h, TSA 1 μM 24 h. Type of data set: cell-based, human. As to the method: as §1, with “Decitabine (DAC, CAS No.” left out, “-80°C” for “−80°C”, “[…] The cells were then harvested, washed with PBS buffer three times,” for “Human recombinant interleukin (IL) IL-2, IL-4,”, “analyzed by a FACScan flow cytometer (BD Biosciences, Franklin Lakes, NJ, USA) using BD AccuriTM C6 Software (BD Biosciences).” for “human recombinant granulocyte/macrophage colony-stimulating factor (GM-CSF) were purchased from R&D Systems.”

In data set [8] the test system is IL-2. Put plainly: IL-2 ELISA of DC/T-cell co-culture supernatant. Type of data set: cell-based, human. To be noted: 72 h co-culture supernatant, versus negative control peptide. The protocol:
Production of cytokines in the supernatants was determined using commercially available ELISA kits (Cloud-Clone Corporation, Wuhan, China) according to the protocol of the manufacturer. Approximately 50 μl of supernatant and different concentration standards were added and mixed with 100 μl of horseradish peroxidase (HRP) labeled detection antibody against a 96-well plate, respectively, except for the blank control. After incubation at 37°C for 60 min, we washed the plate five times. Add substrate A and substrate B 50 μl respectively, incubate for 15min in a 37°C incubator in dark. Then, 50 μl of stop solution was added and a 450 nm absorbance value (OD value) was measured within 15 min. The regression equation of the standard curve is calculated according to the concentration of the standard substance and the OD value, and the corresponding sample concentration is calculated on the basis of the regression equation.
On the technique in general: ELISA stands for enzyme-linked immunosorbent assay.

For `CCCC(CCC)C(=O)O` [VPA, valproic acid], in data set [1], the “methylation level of MAGE-D4 promoter region 1” value is given as “decreased significantly”. Moreover, in data set [2], the “methylation level of MAGE-D4 promoter region 1” value is “decreased significantly”; the “methylation level of MAGE-D4 promoter region 2” value is “decreased significantly”; the “total methylation levels of regions 1 and 2 of MAGE-D4 core promoter” value is listed as “decreased significantly”.
Regarding ILSNEPWEL [Peptide P4], the “stimulation index (SI), T-cell proliferation, CCK8” value in data set [3] is “can induce T-cell proliferation”. Also, in data set [4], the “cytotoxicity of peptide-specific T cells (specific lysis, LDH)” value is given as “cytotoxicity on the DAC + TSA-treated U251 cells with statistical significance”. Besides, the “DC50 (time required for 50% dissociation of the HLA-A*0201/peptide complex)” value in data set [5] is listed as above 2 h.
For the molecule VLCLPPRNV [Peptide P7], in data set [5], the “DC50 (time required for 50% dissociation of the HLA-A*0201/peptide complex)” value is recorded as below 2 h.
As to TLTSFDIHI [Peptide P2], the “FI (fluorescence index, HLA-A*0201 binding affinity)” value in data set [6] was 0.877.
Consider `Nc1ncn([C@H]2C[C@H](O)[C@@H](CO)O2)c(=O)n1` [DAC, Decitabine], for which the “methylation level of MAGE-D4 promoter region 1” value in data set [1] and in data set [2] was “decreased significantly” in each case. For the same molecule, in data set [7], the HLA-A2 levels result is given as “elevated HLA-A2 levels with statistical significance”.
Take ALQLDPETL [Peptide P5]: in data set [3], the “stimulation index (SI), T-cell proliferation, CCK8” value was “can induce T-cell proliferation”. In addition, the “IL-2 secreted by DC-stimulated T cells” value in data set [8] is “higher IL-2”.
For SLGPGLRIL [Peptide P3], the “FI (fluorescence index, HLA-A*0201 binding affinity)” value in data set [6] amounted to 0.887.
The same measure, in the same setting: the result for SVQSESYSV [Peptide P1] reads 0.007.
